# According to PMC6540907, “The nuclear export inhibitor aminoratjadone is a potent effector in extracellular-targeted drug conjugates” (Chemical Science, 2019):
# Read-outs that look alike come from different tables or passages of the source. Starred links: 1 amine or outer side, 2 acyl side, 3 side chain; linkers in the order of their positions; H or OH if unused. Non-standard residues stand in square brackets, D forms with d. Residues, ends and D or L forms follow the SMILES beside them. Groups on a side chain read outwards from the residue. *: point of attachment. X2 = C/C=C/[C@@H]1O[C@H]([C@@H](/C=C/C=C(\C)C[C@@H](C)/C=C(C)\C=C\[C@H]2CC=CC(=O)O2)N*)C[C@@H](O)[C@@H]1C; X1 = O=C([C@@H](CCCn1nnc2c1CCC1C(CC2)C1COC(=O)[*:3])N[*:1])[*:2]; PABC = O=C(OCc1ccc(N[*:1])cc1)[*:2]; Cit = NC(=O)NCCC[C@H](N)C(=O)O; pGlu = O=C1CC[C@@H](C(=O)O)N1; azaGly = NNC(=O)O
# How the values were obtained:
# Type in all cases: cell-based, human
# A-549 = assay: cells
# Procedure: (§1) Biological evaluation of the compounds […]
# (§2) serial dilutions of the test compound were given to 120 µL of suspended cells (50.000/mL) in wells of 96-well plates. After 5 days of incubation growth inhibition (IC50) was determined using an MTT assay.9
# (§3) Table S1:Medium conditions for different cell types.
# (§4) Cell type Medium Additives
# (§5) L-929 (DSMZ ACC 2) DME medium (high glucose) (Gibco) 10% fetal calf serum (Gibco) SKOV-3 DSMZ ATCC HTB Mc Coys-Medium (Gibco) 10% fetal calf serum (Gibco) […]
# (§6) A549 (DSMZ ACC 107) DME medium (high glucose) (Gibco) 10% fetal calf serum (Gibco)
# KB-3.1 = assay: cells
# Procedure: as §1, §2, §3, §4, §5, §6
# MCF-7 = assay: cells
# Procedure: as §1, §2, §3, §4, §5, §6
# SK-OV-3 = assay: cells
# Procedure: as §1, §2, §3, §4, §5, §6
# KB-3.1 cancer cells = assay: Cell proliferation assay under folate free conditions (MTT); details: KB-3.1, folate receptor-positive, read-out: Antiproliferative activity IC50 of folate-ratjadone conjugates
# Procedure: Cell proliferation assay under folate free conditions
# KB 3.1 (DSMZ ACC 158) cells were cultivated at 37 °C and 10 % CO2 in RMPI-medium without folic acid (Gibco) with 10% fetal calf serum (Gibco). 120 µL of suspended cells (100.000/mL) were seeded in wells of 96-well plates and after 24 h at 37 °C and 10 % CO2 the medium was removed, the cells were washed with PBS and RPMI-medium without folic acid (Gibco) + 10% dialyzed fetal calf serum (Sigma) were added to the cells, before after additional 24 h at 37°C and 10 % CO2 60 µL of serial dilutions of the test compound were given to cells. After 1, 2 and 5 days of incubation growth inhibition (IC50) was determined using an […]
# [1] = A-549 human lung carcinoma, read-out: Antiproliferative activity IC50
# [2] = Homo sapiens, A549, read-out: Antiproliferative activity IC50, A-549 human lung carcinoma
# [3] = Homo sapiens, KB 3-1, read-out: Antiproliferative activity IC50, KB-3.1 human cervix carcinoma
# [4] = Homo sapiens, MCF7, read-out: Antiproliferative activity IC50, MCF-7 human breast carcinoma
# [5] = Homo sapiens, SK-OV-3, read-out: Antiproliferative activity IC50
compound,measurement,setting,value
C/C=C/[C@@H]1O[C@H]([C@@H](/C=C/C=C(\C)C[C@@H](C)/C=C(C)\C=C\[C@H]2CC=CC(=O)O2)NC(=O)OCc2ccc(NC(=O)[C@H](CCCNC(N)=O)NC(=O)[C@@H](NC(=O)OCC3C4CCc5nnn(CCC[C@@H](NC(=O)[C@H](Cc6ccc(O)cc6)NC(=O)[C@H](CO)NC(=O)[C@H](Cc6c[nH]c7ccccc67)NC(=O)[C@H](Cc6c[nH]cn6)NC(=O)[C@@H]6CCC(=O)N6)C(=O)N[C@@H](CC(C)C)C(=O)N[C@@H](CCCNC(=N)N)C(=O)N6CCC[C@H]6C(=O)NCC(N)=O)c5CCC43)C(C)C)cc2)C[C@@H](O)[C@@H]1C (some centres unmarked),IC50,A-549; [1],23 nM
C/C=C/[C@@H]1O[C@H]([C@@H](/C=C/C=C(\C)C[C@@H](C)/C=C(C)\C=C\[C@H]2CC=CC(=O)O2)NC(=O)OCc2ccc(NC(=O)[C@H](CCCNC(N)=O)NC(=O)[C@@H](NC(=O)OCCc3cn(CCC[C@H](NC(=O)[C@H](Cc4ccc(O)cc4)NC(=O)[C@H](CO)NC(=O)[C@H](Cc4c[nH]c5ccccc45)NC(=O)[C@H](Cc4c[nH]cn4)NC(=O)[C@@H]4CCC(=O)N4)C(=O)N[C@@H](CC(C)C)C(=O)N[C@@H](CCCNC(=N)N)C(=O)N4CCC[C@H]4C(=O)NCC(N)=O)nn3)C(C)C)cc2)C[C@@H](O)[C@@H]1C,IC50,A-549; [1],1200 nM
C/C=C/[C@@H]1O[C@H]([C@@H](/C=C/C=C(\C)C[C@@H](C)/C=C(C)\C=C\[C@H]2CC=CC(=O)O2)NC(=O)OCc2ccc(NC(=O)[C@H](CCCNC(N)=O)NC(=O)[C@@H](NC(=O)OCC3C4CCc5nnn(CCC[C@@H](NC(=O)[C@H](Cc6ccc(O)cc6)NC(=O)[C@H](CO)NC(=O)[C@H](Cc6c[nH]c7ccccc67)NC(=O)[C@H](Cc6c[nH]cn6)NC(=O)[C@@H]6CCC(=O)N6)C(=O)N[C@@H](CC(C)C)C(=O)N[C@@H](CCCNC(=N)N)C(=O)N6CCC[C@H]6C(=O)NNC(N)=O)c5CCC43)C(C)C)cc2)C[C@@H](O)[C@@H]1C (stereo partly drawn) ([pGlu]HWSY[X1]([Val-Cit-PABC-X2])LRP[azaGly]-NH2),IC50,A-549; [1],12.8 nM
C#CCCOC(=O)N[C@@H](C(=O)NC(CCCNC(N)=O)C(=O)Nc1ccc(COC(=O)N[C@H](/C=C/C=C(\C)C[C@@H](C)/C=C(C)\C=C\[C@H]2CC=CC(=O)O2)[C@@H]2C[C@@H](O)[C@H](C)[C@H](/C=C/C)O2)cc1)C(C)C (some centres unmarked) [Compound 26],IC50,A-549; [1],25.1 nM
same,IC50,"A-549; Homo sapiens, A549, A-549 human lung carcinoma, read-out: Antiproliferative activity IC50",25.1 nM
same,IC50,"KB-3.1; KB 3-1, KB-3.1 human cervix carcinoma, read-out: Antiproliferative activity IC50",9.2 nM
same,IC50,"MCF-7; Homo sapiens, MCF7, MCF-7 human breast carcinoma, read-out: Antiproliferative activity IC50",12.5 nM
same,IC50,"MCF-7; MCF-7 human breast carcinoma, read-out: Antiproliferative activity IC50",12.5 nM
same,IC50,"SK-OV-3; Homo sapiens, SK-OV-3, SK-OV-3 human ovarian carcinoma, read-out: Antiproliferative activity IC50",13.6 nM
same,IC50,"SK-OV-3; SK-OV-3 human ovarian carcinoma, read-out: Antiproliferative activity IC50",13.6 nM
"C#CCCC(=O)NCCSSCCC(=O)N[C@H](/C=C/C=C(\C)C[C@@H](C)/C=C(C)\C=C\[C@H]1CC=CC(=O)O1)[C@@H]1C[C@@H](O)[C@H](C)[C@H](/C=C/C)O1 [Compound 29, HCC(CH2)2(CO)-NH-(CH2)2SS(CH2)2(CO)-16R-Aminoratjadone]",IC50,A-549; [2],0.86 nM
same,IC50,KB-3.1; [3],1.86 nM
same,IC50,MCF-7; [4],0.17 nM
same,IC50,SK-OV-3; [5],1.09 nM
C#CCCOC(=O)NC1C[C@@H]([C@H](O)/C=C/C=C(\C)C[C@@H](C)/C=C(C)\C=C\[C@H]2CC=CC(=O)O2)O[C@@H](/C=C/C)[C@H]1C (some centres unmarked) [Compound 34],IC50,A-549; [2],5.22 nM
same,IC50,KB-3.1; [3],7.23 nM
same,IC50,MCF-7; [4],3.1 nM
same,IC50,SK-OV-3; [5],4.22 nM
CC(C)C[C@H](NC(=O)[C@@H](CCCN=[N+]=[N-])NC(=O)[C@H](Cc1ccc(O)cc1)NC(=O)[C@H](CO)NC(=O)[C@H](Cc1c[nH]c2ccccc12)NC(=O)[C@H](Cc1c[nH]cn1)NC(=O)[C@@H]1CCC(=O)N1)C(=O)N[C@@H](CCCNC(=N)N)C(=O)N1CCC[C@H]1C(=O)NCC(N)=O [D-Orn-N3-LHRH],IC50,A-549,318 nM
same,IC50,KB-3.1,1110 nM
same,IC50,MCF-7,47.4 nM
same,IC50,SK-OV-3,190 nM
C/C=C/[C@@H]1O[C@H]([C@@H](/C=C/C=C(\C)C[C@@H](C)/C=C(C)\C=C\[C@H]2CC=CC(=O)O2)NC(=O)OCc2ccc(NC(=O)[C@H](CCCNC(N)=O)NC(=O)[C@@H](NC(=O)OCC3C4CCc5nnn(-c6ccc(C(=O)NCCCC[C@H](NC(=O)CC[C@H](NC(=O)CC[C@H](NC(=O)c7ccc(NCc8cnc9nc(N)[nH]c(=O)c9n8)cc7)C(=O)O)C(=O)O)C(=O)OC)cc6)c5CCC43)C(C)C)cc2)C[C@@H](O)[C@@H]1C (stereo partly drawn) [FA-1-Val-Cit-pABA-16R-aminoratjadone],IC50,KB-3.1 cancer cells; listed as FA-1-Val-Cit-pABA-16R-Aminoratjadone,169 nM
same,IC50,KB-3.1 cancer cells,169 nM
C/C=C/[C@@H]1O[C@H]([C@@H](/C=C/C=C(\C)C[C@@H](C)/C=C(C)\C=C\[C@H]2CC=CC(=O)O2)NC(=O)OCCc2cn(-c3ccc(C(=O)NCCCC[C@H](NC(=O)CC[C@H](NC(=O)CC[C@H](NC(=O)c4ccc(NCc5cnc6nc(N)nc(O)c6n5)cc4)C(=O)O)C(=O)O)C(=O)O)cc3)nn2)C[C@@H](O)[C@@H]1C [FA-6-L-16R-aminoratjadone],IC50,KB-3.1 cancer cells; listed as FA-6-L-16R-Aminoratjadone,150 nM
same,IC50,KB-3.1 cancer cells,150 nM
C/C=C/[C@@H]1O[C@H]([C@@H](/C=C/C=C(\C)C[C@@H](C)/C=C(C)\C=C\[C@H]2CC=CC(=O)O2)NC(=O)OCc2ccc(NC(=O)[C@H](CCCNC(N)=O)NC(=O)[C@@H](NC(=O)OC[C@@H]3[C@@H]4CCc5nnn(-c6ccc(C(=O)NCCCC[C@H](NC(=O)CC[C@H](NC(=O)CC[C@H](NC(=O)c7ccc(NCc8cnc9nc(N)nc(O)c9n8)cc7)C(=O)O)C(=O)O)C(=O)O)cc6)c5CC[C@@H]43)C(C)C)cc2)C[C@@H](O)[C@@H]1C [FA-6-Val-Cit-pABA-16R-aminoratjadone],IC50,KB-3.1 cancer cells; listed as FA-6-Val-Cit-pABA-16R-Aminoratjadone,223 nM
same,IC50,KB-3.1 cancer cells,223 nM
C/C=C/[C@@H]1O[C@H]([C@@H](/C=C/C=C(\C)C[C@@H](C)/C=C(C)\C=C\[C@H]2CC=CC(=O)O2)NC(=O)OCCc2cn(CCC[C@H](NC(=O)CC[C@H](NC(=O)CC[C@H](NC(=O)c3ccc(NCc4cnc5nc(N)[nH]c(=O)c5n4)cc3)C(=O)O)C(=O)O)C(=O)O)nn2)C[C@@H](O)[C@@H]1C [FA-7-L-16R-aminoratjadone],IC50,KB-3.1 cancer cells; listed as FA-7-L-16R-Aminoratjadone,190 nM
same,IC50,KB-3.1 cancer cells,190 nM
C/C=C/[C@@H]1O[C@H]([C@@H](/C=C/C=C(\C)C[C@@H](C)/C=C(C)\C=C\[C@H]2CC=CC(=O)O2)NC(=O)OCc2ccc(NC(=O)[C@H](CCCNC(N)=O)NC(=O)[C@@H](NC(=O)OC[C@@H]3[C@@H]4CCc5nnn(CCC[C@H](NC(=O)CC[C@H](NC(=O)CC[C@H](NC(=O)c6ccc(NCc7cnc8nc(N)nc(O)c8n7)cc6)C(=O)O)C(=O)O)C(=O)O)c5CC[C@@H]43)C(C)C)cc2)C[C@@H](O)[C@@H]1C [FA-7-Val-Cit-pABA-16R-aminoratjadone],IC50,KB-3.1 cancer cells,34.3 nM
C/C=C/[C@@H]1O[C@H]([C@@H](/C=C/C=C(\C)C[C@@H](C)/C=C(C)\C=C\[C@H]2CC=CC(=O)O2)NC(=O)OCCc2cn(-c3ccc(C(=O)NCCCC[C@H](NC(=O)CC[C@H](NC(=O)c4ccc(NCc5cnc6nc(N)[nH]c(=O)c6n5)cc4)C(=O)O)C(=O)N[C@@H](CCCCN)C(=O)O)cc3)nn2)C[C@@H](O)[C@@H]1C [FA-8-L-16R-aminoratjadone],IC50,KB-3.1 cancer cells; listed as FA-8-L-16R-Aminoratjadone,129 nM
same,IC50,KB-3.1 cancer cells,129 nM
C/C=C/[C@@H]1O[C@H]([C@@H](/C=C/C=C(\C)C[C@@H](C)/C=C(C)\C=C\[C@H]2CC=CC(=O)O2)NC(=O)OCc2ccc(NC(=O)[C@H](CCCNC(N)=O)NC(=O)[C@@H](NC(=O)OC[C@@H]3[C@@H]4CCc5nnn(-c6ccc(C(=O)NCCCC[C@H](NC(=O)CC[C@H](NC(=O)c7ccc(NCc8cnc9nc(N)nc(O)c9n8)cc7)C(=O)O)C(=O)N[C@H](CCCCN)C(=O)O)cc6)c5CC[C@@H]43)C(C)C)cc2)C[C@@H](O)[C@@H]1C [FA-8-Val-Cit-pABA-16R-aminoratjadone],IC50,KB-3.1 cancer cells,39.9 nM
C/C=C/[C@@H]1O[C@H]([C@@H](/C=C/C=C(\C)C[C@@H](C)/C=C(C)\C=C\[C@H]2CC=CC(=O)O2)NC(=O)OCCc2cn(CCC[C@H](NC(=O)[C@H](Cc3ccc(O)cc3)NC(=O)[C@H](CO)NC(=O)[C@H](Cc3c[nH]c4ccccc34)NC(=O)[C@H](Cc3c[nH]cn3)NC(=O)[C@@H]3CCC(=O)N3)C(=O)N[C@@H](CC(C)C)C(=O)N[C@@H](CCCNC(=N)N)C(=O)N3CCC[C@H]3C(=O)NCC(N)=O)nn2)C[C@@H](O)[C@@H]1C [L-Orn-LHRH-16R-aminoratjadone],IC50,A-549; [1],1600 nM
